From paper PMC6934184, “Selective DNA-PKcs inhibition extends the therapeutic index of localized radiotherapy and chemotherapy” (The Journal of Clinical Investigation, 2019)

Target: T1, ACVR2B (Homo sapiens, UniProt Q13705)
T1 construct: purchased Thermo Fisher Scientific (Life Technologies) SelectScreen
Test: SelectScreen LanthaScreen
Format: binding
Conditions: 1 µM
In short: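 SelectScreen broad panel; activity (Z'LYTE, Adapta) plus binding formats. ATP: Km app for CSF1R Z'LYTE; 10 for CAMK1 Adapta. Readout = % per kinase.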

T1 sequence (Q13705 19-512): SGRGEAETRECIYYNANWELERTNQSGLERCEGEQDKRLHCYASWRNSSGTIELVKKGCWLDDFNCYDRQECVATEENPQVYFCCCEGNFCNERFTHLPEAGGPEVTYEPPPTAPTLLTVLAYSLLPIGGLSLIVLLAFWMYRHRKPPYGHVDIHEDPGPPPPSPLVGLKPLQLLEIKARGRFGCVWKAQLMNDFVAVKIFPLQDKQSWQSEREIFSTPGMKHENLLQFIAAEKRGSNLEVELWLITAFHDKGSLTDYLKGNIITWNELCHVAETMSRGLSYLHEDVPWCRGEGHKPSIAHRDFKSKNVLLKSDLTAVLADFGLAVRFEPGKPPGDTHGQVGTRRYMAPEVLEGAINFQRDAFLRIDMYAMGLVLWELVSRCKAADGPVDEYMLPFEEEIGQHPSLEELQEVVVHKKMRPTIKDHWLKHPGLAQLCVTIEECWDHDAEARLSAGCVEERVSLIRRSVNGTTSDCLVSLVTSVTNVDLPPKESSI

Structure (SMILES): CN(C(=O)CN1CCOCC1)c1ccc2sc3c(-c4cccc5c(=O)cc(N6CC7CCC(C6)O7)oc45)cccc3c2c1 [NU5455]
- % displacement: 15.7%
